Test results reported in patent EP2601945A1 (Thomale, Jürgen, priority 2011, dated 2013).
Several values for one entry are separate records, joined by “and”; a condition that tells them apart may be missing. Equal values may be shown once. Entries after “also recorded” stand apart in the source; their conditions may differ.

Key:
Pt-GG adducts in DNA [1] = experiment: In vivo screening for cis-platin uptake inhibitors and DPH co-administration, ICA of Pt-GG adducts; parameters: species or system mice
Experimental: (§1) The sacrificed animals were immediately dissected. Kidneys and lungs were submerged in embedding medium (Tissue-Tek O.C.T. Compound) and frozen in liquid nitrogen. Cochleae were dissected and fixed by intralabyrinthine perfusion with Carnoy's solution (3 hours; for DNA adduct staining) or with formaldehyde (4 % in PBS; 1 hour; for OCT protein staining). Cochleae were decalcified in EDTA solution (10 % w/v in PBS) for 3 days and then placed in sucrose solutions (5 % in PBS for 12 hours and 15 % in PBS for 5 hours). After that samples were imbedded in Tissue-Tek medium, frozen and cryosections of 10 µm cut.
(§2) Frozen tissue sections of the inner ear or kidneys on ImmunoSelect slides were fixed in methanol at -20°C for at least 2 hours or overnight and then rehydrated for 10 minutes in PBS, at room temperature. To provide better antibody penetration in the tissue structures the samples underwent alkaline permeabilisation of cytoplasmic and nuclear membranes for 5 minutes at 0°C, followed by washing in PBS at room temperature for 5 minutes. The proteolytic cleavage of cytoplasmic and nuclear proteins was performed in two steps. At first, a pre-warmed pepsin solution (60 µg /ml for cell culture or 100 µg/ml for tissue sections in PBS/HCl) was applied onto the tissue sections and incubated for 10 minutes at 37°C in a humidified chamber. The incubation with pepsin was followed by washing in PBS for 10 minutes at room temperature. In a second step tissue sections were incubated with pre-warmed proteinase K solution (40 µg/ml for cell cultures or 50-100 µg /ml for tissue sections in proteinase K buffer) for 10 minutes at 37°C in a humidified chamber. Subsequently the sections were washed in 0.2 % glycine in PBS for 10 minutes at room temperature. Non-specific binding of the antibodies was inhibited by incubation with a blocking solution of 1 % casein in PBS for 30 minutes at room temperature. The samples were then incubated with a monoclonal antibody (R-C18, Liedert et al., 2006) specific for Pt-GG adducts in DNA (0.1 µg/ml in 0.1 % BSA/PBS) over night at 4°C in the humidified chamber. Subsequently, the slides were washed in 0.05 % Tween 20 in PBS for 5 minutes at room temperature and then in PBS for 5 minutes. The incubation with secondary Cy3-labeled rabbit anti-(rat Ig) antibodies, was performed (0.2 µg/ml in 0.1 % BSA/PBS) for 60 minutes at 37°C in the humidified chamber, followed by washing in 0.05 % Tween 20 in PBS for 5 minutes at room temperature and then in PBS for 5 minutes. The nuclear DNA was counterstained with DAPI (1 µg/ml in PBS) for 30 minutes at room temperature. The slides were then washed in PBS. Finally, the samples were embedded with a densification compound "[…]". The quantification of immuno- and DNA-fluorescence was performed by means of a microscope-coupled digital image analysis system ACAS 6.0 Cytometry Analysis System. Adduct levels in the nuclear DNA of individual cells were calculated by normalizing antibody-derived fluorescence signals to the corresponding DNA content of the same nucleus, and were expressed as arbitrary fluorescence units (AFUs). Data were assigned to specific cell types as determined by histochemistry.
The mice were separated into two groups for pretreatment with low or high doses of the test compounds. […] The low dose group received half the dose of the high dose group (50, 50, 30 or 10 mg/kg, respectively). […] Cochleae and kidneys were dissected for immunostaining and ICA analyses of Pt-GG adduct levels in specific cell types (Figure 8). In tissue sections from mice pretreated with quinine or butylscopolamine no inhibition of DNA platination was observed, independent of the dosing, in either of the three target cell types (renal tubulus epithelium cells (Figure 8 A), cochlear marginal cells (Figure 8B) and outer hair cells (Figure 8 C)). […]

[2] = type: in vivo, mice
Experimental: Since the protective effect of DPH for the cochlea may be mediated by blocking an ion transporter being relevant for the physiological function of the target cells, an additional experiment was done to verify whether a treatment with DPH alone alters the hearing capability of the mice. For this, five animals measured for their basal auditory sensitivity with the BAER test were treated 24 h later with a single dose of DPH (57 mg/kg), and were re-examined one hour later again by the BAER test.

Kras/p53 deficient mice = experiment: Survival upon repetitive cis-platin treatment; type: in vivo; conditions: repetitive cis-platin 9 mg/kg in combination with DPH 50 mg/kg versus cis-platin alone (Figure 16)
Pt-GG adducts in DNA [3] = experiment: ICA of Pt-GG adducts in cochlear cells of XPA-/- versus wild type mice; type: in vivo
Experimental: Frozen tissue sections of the inner ear or kidneys on ImmunoSelect slides were fixed in methanol at -20°C for at least 2 hours or overnight and then rehydrated for 10 minutes in PBS, at room temperature. To provide better antibody penetration in the tissue structures the samples underwent alkaline permeabilisation of cytoplasmic and nuclear membranes for 5 minutes at 0°C, followed by washing in PBS at room temperature for 5 minutes. The proteolytic cleavage of cytoplasmic and nuclear proteins was performed in two steps. At first, a pre-warmed pepsin solution (60 µg /ml for cell culture or 100 µg/ml for tissue sections in PBS/HCl) was applied onto the tissue sections and incubated for 10 minutes at 37°C in a humidified chamber. The incubation with pepsin was followed by washing in PBS for 10 minutes at room temperature. […] The quantification of immuno- and DNA-fluorescence was performed by means of a microscope-coupled digital image analysis system ACAS 6.0 Cytometry Analysis System. Adduct levels in the nuclear DNA of individual cells were calculated by normalizing antibody-derived fluorescence signals to the corresponding DNA content of the same nucleus, and were expressed as arbitrary fluorescence units (AFUs). Data were assigned to specific cell types as determined by histochemistry. […]

Pt-GG adducts in DNA [4] = experiment: Immunocytological assay (ICA) of Pt-GG adducts in kidney and cochlea cells after cis-platin treatment; type: in vivo, mice
Experimental: as §1, §2
24 hours later, the inner ears and kidneys were dissected, kidneys were frozen immediately and cochleae were fixed and decalcified. Cryosections (10 µm) prepared from the tissues were placed onto specific adhesion slides. Slides were then immunostained for the visualization of platinum-guanine-guanine (Pt-GG) intrastrand adducts in the nuclei of individual cells by using the adduct-specific monoclonal antibody R-C18 in an immunocytological assay (ICA) (Liedert et al., 2006). The tissue sections were then stained with a secondary Cy3-labeled goat-anti-rat antibody (Cy3), counterstained with DAPI for nuclear DNA, and analyzed in the fluorescence microscope (Figure 1). Serial sections from the same tissues were stained for morphological orientation with hematoxyline and eosin (H&E). […]

hearing capability = experiment: BAER hearing test in XPA-/- and wild type mice after low dose cis-platin; conditions: cis-platin cumulative dose 3.5 mg/kg within two weeks, NER-deficient XPA-/- mice
Pt-GG adducts in DNA [5] = experiment: Immunocytological assay (ICA) of Pt-GG adducts in kidney and cochlea cells after cis-platin treatment; type: in vivo, mice; conditions: cis-platin 12.5 mg/kg single dose; measured 2, 16, 48, 72 h
[6] = DPH 0 to 57 mg/kg i.p. 30 minutes prior to cis-platin 10 mg/kg (Figure 9)
[7] = DPH 57 mg/kg 30 minutes before cis-platin 12.5 mg/kg, 2, 16, 48, 72 hours
[8] = high dose of 60 mg/kg i.p. 1 h before cis-platin 10 mg/kg, 24 h
[9] = cis-platin plus DPH, repetitive treatment
[10] = cis-platin 10 mg/kg i.p., cochlea, 24 h (Figure 3 B)
[11] = cis-platin 10 mg/kg i.p., kidney
[12] = cis-platin 10 mg/kg i.p., kidney, 24 h (Figure 3 A)

CN(C)CCOC(c1ccccc1)c1ccccc1 [DPH, diphenhydramine]
adduct accumulation in proximal tubule cells and marginal cells (Pt-GG adducts in DNA [1]; [6]): dose-dependent inhibition
adduct levels in distal tubule cells and basal and intermediate cells of the stria vascularis (Pt-GG adducts in DNA [1]; [6]): No significant alterations
DNA platination in marginal and outer hair cells versus cis-platin alone, all time points (Pt-GG adducts in DNA [1]; [7]): drastically decreased
capability to repair the DNA damage (Pt-GG adducts in DNA [1]; [7]): no obvious differences
inhibition of the formation of Pt-adducts in outer hair cells and marginal cells (Pt-GG adducts in DNA [1]; DPH along with cis-platin (description)): about 70%
formation of Pt-adducts in dorsal root ganglion (DRG) neurons (Pt-GG adducts in DNA [1]; cis-platin 15 mg/kg with DPH 50 mg/kg, 24 h (Figure 9 C)): inhibited; also recorded: significantly reduced
shielding from DNA damage, cochlear marginal cells (Pt-GG adducts in DNA [1]; [8]): 70%
shielding from DNA damage, outer hair cells (Pt-GG adducts in DNA [1]; [8]): about 50%
shielding from DNA damage, proximal tubule cells (Pt-GG adducts in DNA [1]; [8]): 75%
adduct levels in other cell types of the inner ear (Pt-GG adducts in DNA [1]; repetitive cis-platin 5 mg/kg every second day plus DPH 57 mg/kg): remained unchanged
adducts in target cells of kidney and inner ear versus cis-platin alone group (Pt-GG adducts in DNA [1]; repetitive cis-platin 5 mg/kg every second day plus DPH 57 mg/kg (Figure 12)): by far less adducts
side effects of prolonged treatment ([2]; DPH alone, up to eight applications): no obvious side effects
general health status versus cis-platin alone group [2, 9]: better
weight loss versus cis-platin alone group [2, 9]: less severe
survival (Kras/p53 deficient mice): improved survival rates

N.N.[Cl][Pt][Cl] [cis-platin, cis-diaminedichloro-platinum(II)]
adduct levels in inner ear cis-platin target cells, XPA -/- mice versus wild type littermates (Pt-GG adducts in DNA [3]; cis-platin cumulated dose 3.5 mg/kg (Figure 7 B legend)): more than 3 times
levels of DNA damage in marginal cells, XPA-/- mice compared to wild type littermates (Pt-GG adducts in DNA [3]; cis-platin cumulative dose 3.5 mg/kg (Figure 7 B)): about 2.7 fold
levels of Pt-GG adducts, OHC vs. adjacent cells in the organ of Corti (Pt-GG adducts in DNA [4]; cis-platin 10 mg/kg i.p.): 11 fold
levels of Pt-GG adducts, marginal cells compared to other cell types in the stria vascularis (Pt-GG adducts in DNA [4]; cis-platin 10 mg/kg i.p.): 5 fold
levels of Pt-GG adducts, adjacent cells in the organ of Corti (Pt-GG adducts in DNA [4]; [10]): 1.19 AFUs
levels of Pt-GG adducts, other cell types in the stria vascularis (Pt-GG adducts in DNA [4]; [10]): 2.08 AFUs
levels of Pt-GG adducts, OHC (outer hair cells) (Pt-GG adducts in DNA [4]; cis-platin 10 mg/kg i.p., cochlea, organ of Corti, 24 h (Figure 3 B)): 13.26 AFUs
levels of Pt-GG adducts, marginal cells (Pt-GG adducts in DNA [4]; cis-platin 10 mg/kg i.p., cochlea, stria vascularis, 24 h (Figure 3 B)): 9,85 AFUs
platination level, distal tubular cells versus glomerulus cells (Pt-GG adducts in DNA [4]; [11]): twice as high
platination level, proximal tubular cells versus distal tubular cells (Pt-GG adducts in DNA [4]; [11]): 7 fold
platination level (Pt-GG adducts), distal tubular cells (Pt-GG adducts in DNA [4]; [12]): 2.61 AFUs
platination level (Pt-GG adducts), glomerulus cells (Pt-GG adducts in DNA [4]; [12]): 0.97 AFUs
platination level (Pt-GG adducts), proximal tubular cells (Pt-GG adducts in DNA [4]; [12]): 18.97 AFUs
adduct levels of non-marginal cells of the stria vascularis, lower than marginal cells (Pt-GG adducts in DNA [4]; cis-platin 10 mg/kg single dose, 24 h, turns of the cochlea (Figure 4)): 10 fold
reduction of hearing capability (BAER), XPA-/- mice (hearing capability): 45% and ~50%
time at which Pt-GG levels peaked, OHCs (Pt-GG adducts in DNA [5]): 16 h
time at which Pt-GG levels peaked, marginal cells (Pt-GG adducts in DNA [5]): 48 h
